Molecules are shown by their SMILES.

Experiment [1] has as its target T1, C-X-C chemokine receptor type 4 (Homo sapiens, UniProt P61073). As to the kind of experiment: Binding affinity to CXCR4 (unknown origin).
Experiment [2] relates to Human immunodeficiency virus 1. As to the kind of experiment: Anti-HIV activity against HIV-1 IIIB infected in MT-4 cells. The class given is functional, organism-based. The conditions noted are these: Human immunodeficiency virus 1, IIIB, MT4.
The subject of experiment [3] is Human immunodeficiency virus 2. As to the kind of experiment: Anti-HIV activity against HIV-2 ROD infected in MT-4 cells. The class given is functional, organism-based. To be noted: Human immunodeficiency virus 2, ROD, MT4.
For experiment [4], the target named is T1, C-X-C chemokine receptor type 4. As to the kind of experiment: Inhibition of 12G5-PE binding to CXCR4 in human U266B1 cells assessed as cell viability incubated for 1 hr by DAPI staining based flow cytometric analysis.

T1 sequence (P61073 whole entry): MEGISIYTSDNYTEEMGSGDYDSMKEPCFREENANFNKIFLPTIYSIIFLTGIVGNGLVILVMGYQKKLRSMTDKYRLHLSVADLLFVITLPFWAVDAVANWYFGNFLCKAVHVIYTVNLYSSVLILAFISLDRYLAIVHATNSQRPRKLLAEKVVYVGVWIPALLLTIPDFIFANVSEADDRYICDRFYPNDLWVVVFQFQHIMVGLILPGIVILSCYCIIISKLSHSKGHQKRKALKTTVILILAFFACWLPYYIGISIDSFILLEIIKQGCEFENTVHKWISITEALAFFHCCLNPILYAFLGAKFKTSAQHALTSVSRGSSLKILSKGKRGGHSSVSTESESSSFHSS

Turning to `NCc1cc(C(N)=O)ccc1CN(Cc1nc2ccccc2[nH]1)C1CCCc2cccnc21` (stereo not given), the IC50 (usually the midpoint of a concentration-inhibition curve) in experiment [1] amounted to 0.01 µM.
Take `C1CNCCNCCCNC(C2CNCCCNCCNCCCN2)CNC1` (stereo not given): the IC50 in experiment [2] and in experiment [3] was 0.1 µM each time.
Consider `O=C1OC2(c3ccc(O)cc3Oc3cc(O)ccc32)c2ccc(NC(=S)NCCCCN(Cc3nc4ccccc4[nH]3)C3CCCc4cccnc43)cc21` (stereo not given), for which the concentration for half-maximal inhibition (IC50) in experiment [4] was 5.62 µM.
The molecule `COC(=O)C(=O)c1ccc(CN(Cc2nc3ccccc3[nH]2)C2CCCc3cccnc32)c(CN)c1` (stereo not given) displayed an IC50 in experiment [1] of 0.01 µM.
